Data: patent US20240182521A1, “CELL-PENETRATING PEPTIDE VARIANT AND USE THEREOF” (REGEN INNOPHARM INC., priority 2021, published 2024)

Experiments:
NIH3T3 cells [1] = test: Cell migration effects, Table 1; assay type: cell-based, mouse; settings: vehicle = 1
Procedure: Various variants of the LPX peptides were prepared as illustrated in FIG. 18. Specifically, various constructs (26 constructs including 101) were prepared by adding various mutations (substitution of a CPP region, amino acid mutation of an RNA binding portion and a zinc finger structure, and addition of his-tag) to the structure of LPX101 in FIG. 19 (FIG. 20).

NIH3T3 cells [2] = test: Glycolysis, extracellular acidification rate (ECAR), Seahorse XF analyzer; assay type: cell-based, mouse
Procedure: NIH3T3 cells were incubated in a glucose-free medium for 1 day and then sequentially treated with glucose, oligomycin, and 2-DG, and an extracellular acidification rate (ECAR) was measured as a measure of lactate production using a Seahorse extracellular flux (XF) analyzer and quantification and profile of ECAR were confirmed in cells treated with LPX peptide (Mean SEM n=3, *; p<0.05).

diabetic mice (db/db) = test: Histological evaluation of wound re-epithelialization (H/E, day 10); assay type: in vivo, mouse; settings: day 10 after initial injury
Source text: In order to histologically evaluate wound re-epithelialization in diabetic mice by LPX peptides 101, 102 and 103, wound tissues from diabetic mice (db/db) treated by each LPX were H/E stained on day 10 after initial injury and confirmed under a microscope (50X and 100x).

[3] = test system: diabetic mouse model (db/db); test: Diabetic wound healing by combined treatment with EGF; assay type: in vivo; settings: db/db mice, 8 mm punch wound
Source text: The diabetic wound healing effect by combined treatment with LPX peptide and EGF was confirmed.

[4] = test system: diabetes model mice (db/db); test: Diabetic wound healing in diabetes model mice (db/db); assay type: in vivo, mouse; settings: db/db mouse model
Procedure: The skins of wild type (WT) mice and diabetes model mice (db/db) (n=14 each) were punched with an 8 mm diameter puncher and treated with LPX101 (2 mg/ml, 20 μl) or PBS daily for 14 days and subjected to wound dressing. The wound healing effect was confirmed by analyzing an initial wound area and a re-epithelialization area using ImageJ (mean SEM n=3, *; p<0.05). In addition, the wound healing effect in wounds treated with LPX101 was histologically evaluated. Specifically, diabetic mice (db/db) were stained with H/E or trichrome at 7 and 14 days after wound induction and then confirmed under a microscope, and re-epithelialization and granulation tissue were quantified using ImageJ (n=3, ***; p<0.001). In addition, the wounds of db/db mice were treated with LPX101, and the tissue epidermis after 14 days was histologically analyzed.
(§1) The wound healing effects of LPX101, LPX102, and LPX103 were confirmed in an STZ-induced diabetic mouse model. […] Thereafter, according to a schedule shown in FIG. 12A, PBS (negative control), EGF (positive control) 50 μg/ml, LPX101 2 mg/ml (20 μl), LPX102 and LPX103 (2 mg/ml (20 μl)) were treated, respectively, and then the effect of wound healing in a diabetes-induced mouse model was confirmed through imaging, re-epithelialization, and diabetes phenotypes (hyperglycemia and impaired glucose tolerance test (IPGTT)) (n=10 for each group, *; p<0.05). Additionally, to compare the regenerative activity of LPX peptides in a diabetic mouse model, wound healing kinetics measured by a % non-epithelialized area to an initial wound area (n=8 for each group), and quantification of re-epithelialization analyzed as % of a re-epithelialized area to the initial wound area were confirmed.

[5] = test system: STZ-induced diabetic mouse model; test: Wound healing in STZ-induced diabetic mouse model; assay type: in vivo; settings: 2 mg/ml (20 μl)
Procedure: as §1

[6] = test system: diabetic model mice (db/db); test: Blood vessel formation in diabetic wounds (histology, day 7); assay type: in vivo, mouse; settings: once daily, day 7 after wounding
Procedure: Since diabetic ulcers were hardly treated by insufficient vascular supply due to impaired angiogenesis and ischemic necrosis, it was confirmed whether the LPX peptide contributed to blood vessel formation in diabetic wound healing. Specifically, diabetic model mice (db/db) were wounded and then treated with LPX 103 or EGF once daily, and the recovery of angiogenesis was analyzed on day 7 after wounding, and in order to visualize the extravasation of red blood cells within the tissue, the wound and entrance (red dotted box) of each group were magnified and images were confirmed.

NIH3T3 cells [7] = test: Intracellular stability, cell proliferation and migration of RNA binding / zinc finger region variants; assay type: cell-based, mouse
Procedure: The protein stability of variants with mutations in the RNA binding region and the zinc finger region was confirmed. Specifically, LPX103 variants with mutated amino acid residues for RNA binding during cell migration were treated with NIH3T3 cells for 1 day, respectively, and based on the molecular modeling program, the intracellular stabilization effect of each peptide was analyzed after 72 hours. The mutation energy of each amino acid residue was confirmed, and variants that may cause<−1 Kcal/mol due to substitution were selected as potential mutations that may increase the stability and activity of the peptide (FIGS. 23 and 24). The effects of the selected variants on cell proliferation and cell migration were confirmed in NIH3T3 cells (FIG. 25), and as a result, mutations in the RNA binding region and the zinc finger region that improved or decreased the stability of the peptide in the cell were confirmed (FIG. 26).

[8] = test system: diabetic human epidermal keratinocyte (DHEK); test: Cell migration across a scratched boundary; assay type: cell-based; settings: DHEK cells; at lower concentrations than LPX101
Procedure: An effect of LPX101 peptide on cell growth was confirmed in a NIH3T3 cell line, and the effects of LPX101, LPX102, and LPX103 peptides on cell migration were confirmed in diabetic human epidermal keratinocyte (DHEK) as a diabetic cell line. Specifically, mMSC or NIH3T3 cells were treated with the LPX101 peptide, incubated for 1 hour, and then washed. A % increase in cell growth by LPX treatment was confirmed by measuring the number of cells after 3 days of treatment and calculating a relative proliferation rate as % compared to a control group (n=3). Additionally, in order to confirm the cell migration effect, DHEK cells were treated with LPX101, LPX102, and LPX103 peptides, incubated for 1 hour, and then washed. Thereafter, the migration of cells across a scratched boundary was measured 72 hours after treatment. The number of cells that migrated across a scratch line was measured by image analysis using ImageJ.

[9] = test system: NIH3T3 cell line and mouse mesenchymal stem cells (mMSCs); test: Cell penetrating effect (FACS, confocal microscopy) of FITC-attached peptides; assay type: cell-based; settings: compared to LPX101 (2 μM)
Source text: A cell penetrating effect was confirmed in penetrating peptides LPX101 (SEQ ID NO: 11), LPX102 (SEQ ID NO: 12), and LPX103 (SEQ ID NO: 13) having three structures including a signal peptide, an RNA binding affinity residue, and an RNA binding residue (FIG. 1), and two zinc finger motifs. Specifically, in order to measure cell penetrating efficiency, respective peptides that may have been attached to the cell membrane surface were removed by applying a Heparin & Trypsin washing method used in a Keplan group [Kaplan I M, Wadia J S, Dowdy S F (2005) Cationic TAT peptide transduction domain enters cells by macropinocytosis. J Controlled release 102: 247-253] to a NIH3T3 cell line and mouse mesenchymal stem cells (mMSCs). […] Then, the cells were washed three times with PBS and detached with trypsin, and then FACS analysis was performed. In addition, whether each peptide actually existed in the nucleus or cytoplasm of the cell was confirmed by confocal microscopy after 18 hours of peptide treatment, and membrane binding was labeled with PKH.

LPX103: cell-penetrating peptide consisting of amino acid sequence SEQ ID NO: 13 (GSERRPKGKSMQKRRSKGDRCYNCGGLDHHAKECKL; LPX103)
Effects on cell migration (3 expts) (NIH3T3 cells [1]; 1 uM): 1.3
Effects on cell migration (3 expts) (NIH3T3 cells [1]; 5 uM): 1.3
glucose metabolism (glycolysis), ECAR (NIH3T3 cells [2]): promoted glucose metabolism (glycolysis)
re-epithelialization of diabetic wounds (histology) (diabetic mice (db/db)): significantly improved re-epithelialization
diabetic wound healing effect in combination with EGF [3]: improved when treated in combination with EGF
diabetic wound healing effect (wound healing kinetics and re-epithelialization) compared to LPX101 [4]: better diabetic wound healing effect than LPX101
wound healing effect compared to LPX101 [5]: better effects than LPX101
capillary formation compared to EGF [6]: more mature capillary formation
hemorrhage (extravasation of RBC) compared to EGF [6]: less hemorrhage (extravasation of RBC)
stability and biological activity (NIH3T3 cells [7]): high stability and biological activity
cell migration compared to LPX101 [8]: promoted cell migration to a similar extent to LPX101
cell permeability compared to LPX101 [9]: high cell permeability similar to LPX101
